Reference: patent US9408859B2, “Pharmaceutical compositions useful for preventing and treating cancer” (Mitotech SA, priority 2007, dated 2016)
Peptide text beside a SMILES is read from it. * marks the point of attachment. Cbz = O=C(OCc1ccccc1)*; CH2F = FC*

Legend:
[1] = tested on: Lung Lewis's carcinoma; assay: SkQ1 combined with doxorubicin on growth of lung Lewis's carcinoma; format: in vivo, mouse; conditions: regime per group
Experimental: For development of oncological diseases joint therapy that combines SkQ1 and chemotherapy, a study on SkQ1 influence on single doxorubicin injection efficiency was performed (one of the mechanisms of the preparation is activation of oxidative processes in normal and cancerous cells). SkQ1 was introduced before, simultaneously, or after introduction of doxorubicin in maximum dose of 500 nM/kg (in order to block oxidative mechanism of doxorubicin influence).
Doxorubicin was applied before, after, and during the course of SkQ1.

[2] = tested on: human rhabdomyosarcoma cell line (RD); assay: Apoptosis in RD cells (Hoechst staining, propidium iodide flow cytometry); format: cell-based; conditions: for Induction of apoptosis: 1 mM NAC or 100 mM Trolox for 24 hours
Experimental: To determine the viability of the cells, chromatine condensation and fragmentation was analyzed in similarly-treated cells (20 nM SkQ or 1 mM NAC or 100 mM Trolox for 24 hours and 1 μm FCCP one hour before SkQ1 where indicated) after staining with Hoechst 3342 (GenScript, Cat. No. L00309, performed according to manufacture manual http://www.genscript.com/tech_guide/TM0361.pdf). The cells were then examined using an Axiovert fluorescent microscope equipped with objectives 20× (dry) and 100× (oil immersion Neofluar) (Carl Zeiss).
Further evidence of apoptosis was obtained by analysis of DNA content in the cellular population using flow cytometry. Cells were incubated with 0.05% ethanol was added (control) or with 20 nM SkQ1 for 24 hours, and then fixed and stained with propidium iodide (5 μM). They were then analyzed by flow cytometry using a FC-500 FACS (Beckman Coulter, Inc., Brea, Calif.).

[3] = tested on: tumor xenografts (tumors of epithelial cancers); conditions: as stated in WO2006005759, cited from earlier work
[4] = tested on: human rhabdomyosarcoma cell line (RD); assay: RD cell morphology, attachment and multinuclear cells; format: cell-based; conditions: 20 nM, pretreatment for 24 hours
Experimental: In the following experiment, a human rhabdomyosarcoma cell line (RD) purchased from the ATCC (#CCL-136) was used. These cells were isolated from a […] 7 years ago and are widely accepted as a model for studies of rhabdomyosarcoma in vitro and in vivo.
The cells were grown in Dulbecco's modified Eagle's medium (DMEM, Gibco®, Invitrogen, Carlsbad, Calif.) supplemented with 10% FBS. The cells were treated with 20 nM SkQ (SkQ1, SkQR1, SkQB1, or SkQBP1), or with a non-targeted antioxidant (1 mM NAC, or 100 μM Trolox) 24 to 72 hours before evaluation. In some experiments 1 μM of the protonophorous uncoupler FCCP was added 1 hour before the addition of SkQ1 to depolarize the mitochondrial membrane, and thus to prevent the electrophoretic accumulation of SkQ in the mitochondrial interior. The cells were then stained with rabbit polyclonal antibodies against actin (1:1000) (Sigma-Aldrich Corp., Baleras, Russia) and monoclonal antibody DM1A against tubulin (1:1000) (Sigma-Aldrich Corp.), and their morphology examined using an Axiovert fluorescent microscope equipped with objectives 20× (dry) and 100× (oil immersion Neofluar) (Carl Zeiss, Germany).

COc1cccc2c1C(=O)c1c(O)c3c(c(O)c1C2=O)C[C@@](O)(C(=O)CO)C[C@@H]3O[C@H]1C[C@H](N)[C@H](O)[C@H](C)O1 [DOX, doxorubicin, reference compound]
TGS %, by tumor volume ([1]; Day 10): 26% | TGS %, by tumor volume ([1]; Day 14): 38% | TGS %, by tumor volume ([1]; Day 14, listed as doxorubicin): 36% | TGS %, by tumor volume ([1]; Day 17): 35% | TGS %, by tumor volume ([1]; Day 21): 30%

N#CC(C#N)=NNc1ccc(OC(F)(F)F)cc1 [FCCP]
Effect on pro-apoptotic action of SkQs ([2]; 1 μm FCCP one hour before SkQ1): prevented their pro-apoptotic action

COC1=C(OC)C(=O)C(CCCCCCCCCC[P+](c2ccccc2)(c2ccccc2)c2ccccc2)=C(C)C1=O [MitoQ]
necrosis [3]: increased necrosis | vascularization of the tumor xenografts [3]: decreased vascularization | tumor size ([3]; no experimental data shown): tumor size reduction

CC(=O)N[C@@H](CS)C(=O)O [NAC]
Induction of apoptosis [2]: induced apoptosis in RD cells but only at much higher concentrations

COc1ccc2c(CC(=O)OCCCCCCCC3=CC(=O)C(C)=C(C)C3=O)c3[n+](cc2c1OC)CCc1cc2c(cc1-3)OCO2 [SkQB1]
Cell morphology [4]: induced the formation of elongated cells

COc1cc2c(cc1OC)-c1c(CC(=O)OCCCCCCCC3=CC(=O)C(C)=C(C)C3=O)c3ccc(OC)c(OC)c3c[n+]1CC2 [SkQBP1]
Cell morphology [4]: induced the formation of elongated cells

Cc1c(C)c2c(c(C)c1O)CCC(C)(C(=O)O)O2 (centres unmarked) [Trolox]
Induction of apoptosis [2]: induced apoptosis in RD cells but only at much higher concentrations

COC(=O)C[C@H](NC(=O)[C@H](C)NC(=O)[C@@H](NC(=O)OCc1ccccc1)C(C)C)C(=O)CF [zVADfmk] (Cbz-Val-Ala-Asp(OMe)-CH2F)
Effect on cell death caused by SkQs ([2]; pan-caspase inhibitor): Cell death was prevented
